Activity calls are given as the source filed them. The rule behind the calls is not given here.
Experiments:
Mast cell [1] = assay: Inhibition of compound 48/80-challenged Sprague-Dawley rat peritoneal mast cell degranulation assessed as beta-glucuronidase release up to 100 uM administered 3 mins prior to compound 48/80 challenge measured after 15 mins; assay type: functional, cell-based
Mus musculus = assay: Suppression of anti-dinitrophenyl-coupled albumin-induced passive cutaneous anaphylaxis reaction-associated ear edema in mouse assessed as reduction of volume of plasma exudation at 30 umol/kg, ip administered 30 mins prior to DNP-albumin challenge measured after 45 mins; assay type: functional, organism-based
Mast cell [2] = assay: Inhibition of compound 48/80-challenged Sprague-Dawley rat peritoneal mast cell degranulation assessed as beta-glucuronidase release at 30 uM administered 3 mins prior to compound 48/80 challenge measured after 15 mins; assay type: functional, cell-based
Mast cell [3] = assay: Inhibition of compound 48/80-challenged Sprague-Dawley rat peritoneal mast cell degranulation assessed as beta-glucuronidase release at 10 uM administered 3 mins prior to compound 48/80 challenge measured after 15 mins; assay type: functional, cell-based

Structure (SMILES): COc1ccc2c(=O)c3ccoc3n(CCC(C)(C)O)c2c1
- Activity (Mast cell [1]): inactive
- Activity (Mus musculus): Active

Structure (SMILES): COc1ccc2c(=O)c3ccoc3n(CC=C(C)C)c2c1
- Activity (Mast cell [2]): Active
- Activity (Mast cell [3]): Active
- Activity (Mus musculus): Active
